This note sets out measurements from patent US7435837B2, “Dihydrobenzofuranyl alkanamine derivatives and methods for using same” (Wyeth, priority 2003, dated 2008).

Where a name gives a salt, the structure may show the parent alone.

`COc1ccccc1-c1cccc2c1OC(CN)C2` (single isomer, unassigned; (+)) (as salt: hydrochloride) [Example 128, (+)-1-[7-(2-methoxyphenyl)-2,3-dihydro-1-benzofuran-2-yl]methanamine] displayed a melting point of 180 to 184 °C.
Take `CC(C)(C)c1cc(Cl)cc2c1OC(CN)C2` (single isomer, unassigned; (-)) (as salt: hydrobromid) [Example 28, (−)-1-(7-tert-butyl-5-chloro-2,3-dihydro-1-benzofuran-2-yl)methanamine]: the melting point is 219 to 222 °C.
On to `Cc1cccc(C)c1-c1cccc2c1OC(CN)C2` (single isomer, unassigned; (-)) (as salt: hydrochloride) [Example 57, (−)-1-[7-(2,6-dimethylphenyl)-2,3-dihydro-1-benzofuran-2-yl]methanamine], for which the melting point lay within 244 to 247 °C.
`NCC1Cc2cccc(Cc3ccccc3)c2O1` (single isomer, unassigned; (+)) (as salt: hydrochloride) [Example 16, (+)-1-(7-benzyl-2,3-dihydro-1-benzofuran-2-yl)methanamine] gave a melting point of 128 to 131 °C.
The molecule `NCC1Cc2cccc(-c3c(F)cccc3F)c2O1` (racemic) (as salt: hydrochloride) [Example 139, (±)-1-[7-(2,6-difluorophenyl)-2,3-dihydro-1-benzofuran-2-yl]methanamine] showed a melting point of 219 to 222 °C.
`NCC1Cc2cc(F)cc(-c3ccccc3F)c2O1` (racemic) (as salt: hydrochloride) [Example 107, (±)-1-[5-fluoro-7-(2-fluorophenyl)-2,3-dihydro-1-benzofuran-2-yl]methanamine]: the melting point was 240 to 247 °C (dec.).
Under `NCC1Cc2cccc(-c3ccc(F)cc3)c2O1` (single isomer, unassigned; (+)) (as salt: hydrobromid) [Example 74, (+)-1-[7-(4-fluorophenyl)-2,3-dihydro-1-benzofuran-2-yl]methanamine] stands 207 to 208 °C; under `NCC1Cc2c(F)c(F)cc(-c3ccccc3)c2O1` (racemic) (as salt: hydrochloride) [Example 109, (±)-(4,5-difluoro-7-phenyl-2,3-dihydro-1-benzofuran-2-yl)methylamine], over 240 °C; under `COc1cccc(-c2cccc3c2OC(CN)C3)c1` (single isomer, unassigned; (+)) (as salt: hydrochloride) [Example 133, (+)-1-[7-(3-methoxyphenyl)-2,3-dihydro-1-benzofuran-2-yl]methanamine], 156 to 158 °C.
Turning to `Cc1cc2c(c(-c3ccccc3)c1)OC(CN)C2` (racemic) (as salt: hydrochloride) [Example 281, (±)-{[(5-methyl-7-phenyl-2,3-dihydro-1-benzofuran-2-yl)methyl]amine], the melting point lay within 227 to 228 °C.
`NCC1Cc2cccc(-c3cccc(F)c3)c2O1` (single isomer, unassigned; (+)) (as salt: hydrochloride) [Example 131, (+)-1-[7-(3-fluorophenyl)-2,3-dihydro-1-benzofuran-2-yl]methanamine] returned a melting point of 186 to 188 °C.
To `CC(C)(C)c1cc(Cl)cc2c1OC(CN)C2` (racemic) (as salt: hydrochloride) [Example 27, (±)-1-(7-tert-butyl-5-chloro-2,3-dihydro-1-benzofuran-2-yl)methanamine] belongs 229 to 231 °C; to `NCC1Cc2cccc(CCc3ccccc3)c2O1` (racemic) (as salt: hydrochloride) [Example 120, (±)-1-[7-(2-phenylethyl)-2,3-dihydro-1-benzofuran-2-yl]methanamine], 155 to 157 °C.
Under `Cc1ccc(-c2cccc3c2OC(CN)C3)cc1` (racemic) (as salt: hydrochloride) [Example 70, (±)-1-[7-(4-methylphenyl)-2,3-dihydro-1-benzofuran-2-yl]methanamine] stands 231 to 232 °C; under `COc1ccc(-c2cccc3c2OC(CN)C3)cc1` (single isomer, unassigned; (+)) (as salt: hydrochloride) [Example 80, (+)-1-[7-(4-methoxyphenyl)-2,3-dihydro-1-benzofuran-2-yl]methanamine], 183 to 186 °C.
For the molecule `NCC1Cc2ccc(Cl)c(-c3ccccc3Cl)c2O1` (racemic) (as salt: hydrochloride) [Example 400, (±)-{[6-chloro-7-(2-chlorophenyl)-2,3-dihydro-1-benzofuran-2-yl]methyl}amine], the melting point was in the range of 221 to 223 °C.
To `NCC1Cc2cccc(-c3ccc(F)cc3F)c2O1` (racemic) (as salt: hydrochloride) [Example 146, (±)-1-[7-(2,4-difluorophenyl)-2,3-dihydro-1-benzofuran-2-yl]methanamine] belongs 222 to 224 °C; to `NCC1Cc2cccc(Cc3ccccc3)c2O1` (racemic) (as salt: hydrochloride) [Example 15, (±)-1-(7-benzyl-2,3-dihydro-1-benzofuran-2-yl)methanamine], 107 to 111 °C (dec.).
Regarding `NCC1Cc2cccc(-c3ccccc3C(F)(F)F)c2O1` (single isomer, unassigned; (+)) (as salt: hydrochloride) [Example 55, (+)-1-{7-[2-(trifluoromethyl)phenyl]-2,3-dihydro-1-benzofuran-2-yl}methanamine], the melting point is 97 to 100 °C.
As for `CC(C)(C)c1cccc2c1OC(CN)C2` (racemic) (as salt: hydrochloride) [Example 24, (±)-1-(7-tert-butyl-2,3-dihydro-1-benzofuran-2-yl)methanamine], the melting point is 177 to 180 °C (dec.).
Under `NCC1Cc2cccc(-c3ccccc3F)c2O1` (racemic) (as salt: hydrochloride) [Example 50, (±)-1-[7-(2-fluorophenyl)-2,3-dihydro-1-benzofuran-2-yl]methanamine] stands 244 to 246 °C; under `NCC1Cc2cc(Cl)cc(-c3ccccc3Cl)c2O1` (racemic) (as salt: hydrochloride) [Example 87, (±)-1-[5-chloro-7-(2-chlorophenyl)-2,3-dihydro-1-benzofuran-2-yl]methanamine], 231 to 234 °C; under `Cc1cccc(C)c1-c1cccc2c1CC(CN)O2` (racemic) (as salt: hydrochloride) [Example 125, (±)-1-[4-(2,6-dimethylphenyl)-2,3-dihydro-1-benzofuran-2-yl]methanamine], 254 to 256 °C.
Turning to `NCC1Cc2ccc(-c3ccccc3)cc2O1` (racemic) (as salt: hydrobromid) [Example 31, (±)-(6-phenyl-2,3-dihydro-1-benzofuran-2-yl)methanamine], the melting point was in the range of 218 to 221 °C.
Under `COc1cc2c(c(C(C)(C)C)c1)OC(CN)C2` (single isomer, unassigned; (-)) (as salt: hydrochloride) [Example 115, (−)-1-(7-tert-butyl-5-methoxy-2,3-dihydro-1-benzofuran-2-yl)methanamine] stands 157 to 159 °C.
